Data from patent publication US5405864A, “Chemotherapeutic maleimides” (Syntex (U.S.A.) Inc., priority 1993, dated 1995).

Experiments:
[1] = molecular target: T1, β1 isozyme of PKC (Rattus norvegicus, UniProt P68403); experiment: Protein kinase C inhibition assay (32P incorporation from γ-32P ATP into synthetic peptide substrate); format: biochemical; conditions: β1 isozyme of PKC from rat brain; 50 μM ATP; five minutes at room temperature
T1 construct: β1 isozyme of PKC from rat brain; from tissue; host or cells: rat brain
T1 sequence (P68403 whole entry): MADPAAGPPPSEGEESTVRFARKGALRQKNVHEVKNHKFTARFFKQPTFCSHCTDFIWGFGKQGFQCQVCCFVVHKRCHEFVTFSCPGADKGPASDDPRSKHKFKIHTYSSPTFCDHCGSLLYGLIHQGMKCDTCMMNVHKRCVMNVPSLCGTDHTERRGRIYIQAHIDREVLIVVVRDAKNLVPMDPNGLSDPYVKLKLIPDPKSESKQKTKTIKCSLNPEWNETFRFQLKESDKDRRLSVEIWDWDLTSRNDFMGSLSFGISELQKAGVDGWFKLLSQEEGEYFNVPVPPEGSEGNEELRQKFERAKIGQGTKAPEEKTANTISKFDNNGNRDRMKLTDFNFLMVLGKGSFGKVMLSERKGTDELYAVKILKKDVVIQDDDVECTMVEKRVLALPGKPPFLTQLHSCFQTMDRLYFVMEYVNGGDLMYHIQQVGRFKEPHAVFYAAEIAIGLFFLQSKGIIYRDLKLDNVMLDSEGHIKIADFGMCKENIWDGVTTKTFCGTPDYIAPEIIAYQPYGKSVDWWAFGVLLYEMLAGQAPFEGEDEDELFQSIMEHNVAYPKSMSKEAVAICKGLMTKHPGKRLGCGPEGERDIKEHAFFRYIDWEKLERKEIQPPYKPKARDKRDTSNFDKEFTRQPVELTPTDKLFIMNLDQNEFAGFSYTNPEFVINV
Procedure: In vitro activity for protein kinase C inhibition, is quantitated by measuring incorporation of ^32 P from γ-^32 P ATP into synthetic peptide substrates.
Protein Kinase C (PKC) inhibitory activity is quantitated by measuring incorporation of ^32 P from γ-^32 P ATP into synthetic peptide substrates. The inhibitory potential is measured using the β1 isozyme of PKC from rat brain and the synthetic peptide substrate ala-lys-arg-arg-arg-leu-ser-ser-leu-arg-ala.
A reaction mixture containing 25 mM Tris-HCl, pH 7.5, 2.5 mM Mg(NO3), 1.0 mM EGTA, 20 μM substrate, 1 μg/mL phosphatidylserine (PS), 5×10^-6 M diacylglycerol(di-C8), and 50 μM ATP is spiked with γ-^32 P ATP (>5,000 Ci/mmol) to provide approximately 10^6 CPM per reaction and 0.08 μg/mL PKC in a 50 μl volume per well. The assay is run with or without test compound, added at various concentrations. After five minutes incubation at room temperature, the reaction is stopped by the addition of 0.2V of a 50% TCA solution. A 30 μl sample from each well (control and test compound) is then spotted onto Whatman P-81 ion exchange chromatography paper, and 32-P incorporation is then counted on a Beckman LS 5000 TA liquid scintillation counter. The percent inhibition of PKC activated by […] diC8 and 1 μg/mL phosphatydil serine is determined according to the formula: […]
and the concentration necessary to achieve 50% Inhibition is determined.

[2] = test system: H82 small cell lung carcinoma (SCLC) cells; experiment: Small Cell Lung Carcinoma Xenograft Assay; format: in vivo, Female athymic nude mice
Procedure: (§1) In vivo activity for chemotherapeutic agents, particularly for treating malignant diseases, is determined by tumor inhibition assays, for example as described by Maneckjee, et al., in Proc. Natl. Acad. Sci. USA, Vol 89, 1169-1173 (February 1992). Variations of the assay can be performed, e.g., using HT-29 colon carcinoma cells, SCLC H82 cells, CHO/PKC-β and CHO/PKC-ε cells.
This procedure is a modification of a procedure described by Maneckjee, et al., in Proc. Natl. Acad. Sci. USA, Vol 89, 1169-1173 (February 1992).
(§2) H82 small cell lung carcinoma (SCLC) cells are thawed from frozen stock and grown in RPMI. Prior to injection, the cells are trypsinized, counted, and resuspended in PBS:solubilized basement membrane preparation (Matrigel®) (1:2) to concentrations of 5×10^5 or 1.5×10^6 […]. Female athymic nude mice, 4-5 weeks old (Harlan Sprague Dawley) receive 200R/mouse irradiation one day prior to challenge, and are given 0.2 ml SCLC/mouse by subcutaneous injection in the flank (concentrations of 1×10^5 or 3×10^5 SCLC cells/mouse). Groups of 30 mice are treated intraperitoneally, once a day, with test compound at 10 mg/kg (solubilized in DMSO and diluted to final vehicle concentration of 20% DMSO in PBS). Treatments are started 2 hours post-challenge and continue for 45 days. Vehicle treated and untreated mice are used as controls.
(§3) Statistical Analysis: A Fisher Exact test [Kendall M., Stuart A., The Advanced Theory of Statistics, Vol., 2 (MacMillan Pub. Co. N.Y., 1979)] is used to compare tumor occurrence rates between groups. The Mann Whitney U test [Hollander N., Wolfe D. A., Non-parametric Statistical Methods (John Wiley and Sons, Inc., N.Y., 1973)] is used to compare differences in survival time and a log rank test (Kalbfleisch J. D., Prentice R. L., The Statistical Analysis of Failure Time Data (John Wiley and Sons, Inc., N.Y. 1980)] is used to compare the time for each tumor to reach 2000 mm^3.

[3] = test system: breast cell line MDA-N; experiment: tumor cell growth inhibition in culture, breast cell line MDA-N; format: cell-based; conditions: Homo sapiens, read-out: GI50 (concentration to inhibit tumor cell growth in culture by 50%)
From the text: (§4) The compounds of the present invention are protein kinase C inhibitors useful as chemotherapeutic agents for treating mammals, particularly humans, having a variety of malignant disease states including: small cell lung carcinoma, colon carcinoma, breast tumors corresonding to MCF7, MDA-MB-435 and MDA-N cell lines, and PKC overexpressing tumors, such as those corresponding to CHO/PKC-ε. […] For example, 3-[1-(3-isothioureidopropyl)-2-(thianaphthen-2-yl)indol-3-yl]-1H-pyrrole-2,5-dione has a GI50 (concentration to inhibit tumor cell growth in culture by 50%) of […] against breast cell line MDA-N versus 1 μM against colon carcinoma cell line HT-29.

[4] = toxicity in mice of the Small Cell Lung Carcinoma Xenograft Assay; format: in vivo, Female athymic nude mice
Procedure: as §2

[5] = test system: colon carcinoma cell line HT-29; experiment: tumor cell growth inhibition in culture, colon carcinoma cell line HT-29; format: cell-based; conditions: Homo sapiens, read-out: GI50 (concentration to inhibit tumor cell growth in culture by 50%)
From the text: as §4

[6] = test system: HT-29 colon cancer cells; experiment: Colon Carcinoma Xenograft Assay; format: in vivo, Female athymic nude mice
Procedure: as §1, §2, §3
By following the procedure of Example 18 and substituting H82 small cell lung carcinoma cells with HT-29 colon cancer cells, grown to a concentration of 5×10^6 cells/ml and administered at a concentration of 1×10^6 cells/mouse, activity against colon carcinoma is determined.

| Structure (SMILES) | IC50 [1] | prevention of SCLC tumor formation (in words) ([2]; 10 mg/kg intraperitoneally once a day, 45 days) | inhibition of tumor growth (in words) ([2]; SCLC H82 xenograft, 10 mg/kg intraperitoneally once a day, 45 days) | tumor size, fold smaller than vehicle-treated or untreated control groups ([2]; challenge of 1×10^5 SCLC cells/mouse, 10 mg/kg i.p. once a day) | median time for the tumor volume to reach 2000 mm^3 ([2]; challenge of 1×10^5 SCLC cells/mouse, 10 mg/kg i.p. once a day, vehicle-treated control Day 35 (p<0.001)) | extension of median time for the tumor volume to reach 2000 mm^3 ([2]; challenge of 1×10^5 SCLC cells/mouse, 10 mg/kg i.p. once a day, vs vehicle-treated control Day 35 (p<0.001)) | tumor size, fold smaller than vehicle-treated or untreated control groups ([2]; challenge of 3×10^5 SCLC cells/mouse, 10 mg/kg i.p. once a day) | median time for the tumor volume to reach 2000 mm^3 ([2]; challenge of 3×10^5 SCLC cells/mouse, 10 mg/kg i.p. once a day, vehicle-treated control Day 31 (p<0.001)) | extension of median time for the tumor volume to reach 2000 mm^3 ([2]; challenge of 3×10^5 SCLC cells/mouse, 10 mg/kg i.p. once a day, vs vehicle-treated control Day 31 (p<0.001)) | number of mice having tumors ≥2000 mm^3 at Day 42 of treatment (in words) ([2]; either challenge level (3×10^5 or 1×10^5 SCLC cells/mouse), 10 mg/kg i.p. once a day, p<0.05) | GI50 [3] | toxicity (in words) ([4]; 10 mg/kg intraperitoneally once a day) | LD50 at 144 h ([4]; mouse, in vivo, ip, after 6 days, read-out: chronic LD50) | GI50 [5] | prevention of HT-29 tumor formation (in words) ([6]; 1×10^6 cells/mouse, procedure of Example 18) | number of mice having tumors ≥2000 mm^3 at Day 42 of treatment (in words) ([6]; HT-29, 1×10^6 cells/mouse, p<0.05) | tumor size, fold smaller than vehicle-treated or untreated control groups ([6]; HT-29, 1×10^6 cells/mouse, procedure of Example 18) | median time for the tumor volume to reach 2000 mm^3 ([6]; HT-29, 1×10^6 cells/mouse, vehicle-treated control Day 33 (p<0.01)) | extension of median time for the tumor volume to reach 2000 mm^3 ([6]; HT-29, 1×10^6 cells/mouse, vs vehicle-treated control Day 33 (p<0.01)) | inhibition of tumor growth (in words) ([6]; HT-29 xenograft, 1×10^6 cells/mouse, 10 mg/kg i.p. once a day (procedure of Example 18)) |
| --- | --- | --- | --- | --- | --- | --- | --- | --- | --- | --- | --- | --- | --- | --- | --- | --- | --- | --- | --- | --- |
| NCCCn1c(-c2cc3ccccc3s2)c(C2=CC(=O)NC2=O)c2ccccc21 [3-[1-(3-aminopropyl)-2-(thianaphthen-2-yl)indol-3-yl]-1H-pyrrole-2,5-dione] | 0.04 µM |  |  |  |  |  |  |  |  |  |  |  |  |  |  |  |  |  |  |  |
| N=C(N)SCCCn1c(-c2cc3ccccc3s2)c(C2=CC(=O)NC2=O)c2ccccc21 [3-[1-(3-isothioureidopropyl)-2-(thianaphthen-2-yl)indol-3-yl]-1H-pyrrole-2,5-dione] | 0.003 µM | not preventing SCLC tumor formation entirely | did significantly slow tumor growth | ~3 fold | > 42 days | > 7 days | approximately 2 fold | 39 days | 8 days | reduced with either challenge level | 0.01 µM | exhibitied toxicity at 10 mg/kg | ~20 mg/kg | 1 µM | not preventing HT-29 tumor formation entirely | reduced | approximately 1.5 fold | 37 days | 4 days | did significantly slow tumor growth |
